Experiments:
[1] = bovine
Protocol: All final tests were carried out with HPLC analysis.

[2] = Skin tolerability trials of ascorbic acid admixtures; conditions: water free carriers, ascorbic acid levels as high as 35%
Description: In addition, acidity is a function of the ionic dissociation of a material in solution. In most circumstances water is the primary dissociation medium and so solutions free of water generally have lower acidity. […] While it is impossible to totally exclude water, as there are minute traces in the ingredients utilized as carriers, acidity is kept to a minimum in what are essentially water free admixtures.

[3] = ascorbic acid content above 14% by weight, water based; cited from earlier work
[4] = Maximum achieved massage induced skin load (400 g vibrator, 10 minutes); conditions: particle size 1 micron ± 0.25 um
Description: To counter this problem, Franz Diffusion Cells using the widely accepted Perfused Bovine Udder Skin model were fitted with vibrators which held a soft plastic head against the test skin in a massaging action. The vibrator was allowed to move randomly over the test sample using its own mass to provide the pressure. The total weight of a vibrator and head was 180 grams and the massage heads were 1.2 cm in diameter. The vibrators provided a massage pressure well below that which would be applied by a person finger massaging cream into the skin.
Testing was done by preparing sample creams as discussed below. Each sample was weighed and spread on the test skin. At this point the sample was subject to five minutes of the massage action described and then the remaining cream was removed and skin surface wiped dry. The weight of the absorbed amount was determined by weighing the removed material. The cell was not capped, the skin being left exposed to the air.
Tests were carried out to determine the maximum of both admixture and dry powder that could be induced into the stratum corneum. The vibrator weight was increased to 400 grams and vibration time to 10 minutes. Zinc gluconate (being of particular interest) was used as the active for these tests.

With `O=C1O[C@H]([C@@H](O)CO)C(O)=C1O` [ascorbic acid] as the compound, how does the “particle size at which absorption began to be demonstrated” value [1] read?
The value was “below 7 microns”.

What about the “subjective discomfort compared with 12% water based admixture” value [2] of the same compound?
The value was “less discomfort”.

And the tolerability [2]?
Its tolerability is “well tolerated”.

And the skin reactions [3]?
Its skin reactions is “burning, stinging and other skin reactions”.

Which results are given for zinc gluconate?
Maximum loading ([4]; carrier Eutanol G): 1.2 micrograms/cm^2; Maximum loading ([4]; carrier Nil (dry powder)): 0.6 micrograms/cm^2

— US20020022052A1, “Transdermal delivery system” (priority 2000, published 2002)
